Assay results taken from patent publication US20240391923A1, “METHIONINE ADENOSYLTRANSFERASE 2A INHIBITOR FOR TREATING MTAP DELETION-TYPE CANCER” (SUZHOU GENHOUSE BIO CO., LTD., priority 2022, published 2024).
Like-named read-outs stand apart in the source and are kept apart here.

Legend:
[1] = system: SDMA in human colon cancer cell line HCT116; assay: Cell symmetric dimethylarginine (SDMA) test, In-cell Western, HCT116 (MTAP wild-type); type: cell-based; details: Homo sapiens, HCT-116, 96 h
Procedure, shortened: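 HCT116 cells treated 4 days at 37° C with compound, top concentration 6 μM, 1:4 dilutions, 6 points, versus DMSO. Fixed cells stained for SDMA with DRAQ5 normalisation; 800/700 nm ratio after background subtraction fitted by non-linear regression for IC50.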

Hut-78 cell strain = assay: Tumor cell proliferation inhibition assay (CellTiter-Glo), Hut-78; type: cell-based; details: Homo sapiens, HuT78, 120 h, Hut-78 cells, 5-day treatment
Procedure: After the HCT116-MTAP-knockout (−/−) cell strain, the HCT116-MTAP wild-type(+/+)-cell strain, the DOHH-2 cell strain, or the Hut-78 cell strain was treated with the test compound for 5 days, the ATP level was measured using a CellTiter-Glo kit of Promega to evaluate the inhibition of the test compound against the growth of the tumor cell strain.
In the present application, the HCT116-MTAP-knockout (−/−) cell strain, the HCT116-MTAP wild-type (+/+)-cell strain, the DOHH-2 cell strain, or the Hut-78 cell strain was seeded into a 96-well cell culture plate at an appropriate cell density. After 24 h, the cells were treated using the test compounds diluted 1:3 fold at the highest concentration of 10 μM for 10 gradients, and a DMSO treatment group was set up separately. The cells were cultured in a 37° C./5% CO2 incubator for 5 days.

[2] = system: SDMA in HCT116-MTAP-knockout cell line; assay: Cell symmetric dimethylarginine (SDMA) test, In-cell Western, HCT116-MTAP-knockout; type: cell-based; details: Homo sapiens, 96 h
[3] = molecular target: MAT2A recombinant protein (Homo sapiens, UniProt P31153); assay: MAT2A inhibitory activity (malachite green colorimetric enzyme assay); type: biochemical
Procedure, shortened: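 Recombinant human MAT2A with L-methionine and ATP in 50 mM HEPES pH 7.5, 50 mM KCl, 10 mM MgCl2, 10 mM DTT, 60 min at room temperature. Phosphate released detected by malachite green reagent (15 min) at 630 nm. Ten-point 1:3 series from 1000 nM final; IC50 by variable-slope non-linear regression.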

[4] = system: HCT116-MTAP wild-type (+/+)-cell strain; assay: Tumor cell proliferation inhibition assay (CellTiter-Glo), HCT116-MTAP wild-type (+/+); type: cell-based; details: Homo sapiens, 120 h, HCT116-MTAP wild-type (+/+) cells, 5-day treatment
Procedure, shortened: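 Cells seeded, then after 24 h treated with 10-point 1:3 dilutions from 10 μM top concentration, DMSO control. Cultured 5 days at 37 °C/5% CO2; growth inhibition from ATP level by CellTiter-Glo luminescence.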

[5] = IC50 score class, read-out: Cell 96 h SDMA Inhibition (HCT116-MTAP+/+) (score)
[6] = read-out: Cell 96 h SDMA inhibition (HCT116-MTAP+/+)
[7] = IC50 score, read-out: Tumor cell 5-day relative growth inhibition (Hut-78) (nM), score
[8] = IC50 value, read-out: Tumor cell 5-day relative growth inhibition (Hut-78)
[9] = IC50 score class, read-out: Cell 96 h SDMA Inhibition (HCT116-MTAP−/−) (score)
[10] = read-out: Cell 96 h SDMA Inhibition (HCT116-MTAP−/−)
[11] = IC50 score class, read-out: MAT2A Inhibition (score)
[12] = IC50 score, read-out: Tumor cell 5-day relative growth inhibition (HCT116-MTAP+/+) (nM), score
[13] = IC50 value, read-out: Tumor cell 5-day relative growth inhibition (HCT116-MTAP+/+)

Chain of MAT2A recombinant protein (P31153 whole entry): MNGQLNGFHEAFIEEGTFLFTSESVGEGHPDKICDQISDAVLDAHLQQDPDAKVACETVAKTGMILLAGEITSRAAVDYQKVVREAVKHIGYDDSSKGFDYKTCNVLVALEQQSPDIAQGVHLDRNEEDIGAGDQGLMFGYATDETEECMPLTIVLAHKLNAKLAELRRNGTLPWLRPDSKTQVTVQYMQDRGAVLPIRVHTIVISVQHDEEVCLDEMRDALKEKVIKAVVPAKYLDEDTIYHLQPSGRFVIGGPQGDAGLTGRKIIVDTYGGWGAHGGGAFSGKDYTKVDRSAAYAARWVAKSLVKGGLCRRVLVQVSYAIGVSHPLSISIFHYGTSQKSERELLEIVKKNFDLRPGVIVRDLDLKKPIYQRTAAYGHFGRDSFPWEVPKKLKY

SMILES | IC50 [1, 5] | IC50 [1, 6] | IC50 (Hut-78 cell strain; [7]) | IC50 (Hut-78 cell strain; [8]) | IC50 [2, 9] | IC50 [2, 10] | IC50 [3, 11] | IC50 ([3]; read-out: MAT2A Inhibition) | IC50 [4, 12] | IC50 [4, 13]
Cc1cc(-n2c(=O)c3nn(C)cc3c3ccc(Cl)cc32)n(C)n1 [Compound B175] | > 3000 nM | 6980 nM | ≥ 2000 nM | 2040 nM | 200 to 1000 nM | 993 nM | < 100 nM | 80.5 nM | – | –
Cn1cc2c(n1)c(=O)n(-c1cncc(O)c1)c1nc(C(F)(F)F)ccc21 [Compound B221] | 200 to 1000 nM | 475 nM | ≥ 2000 nM | 10600 nM | 1000 to 3000 nM | 2540 nM | < 100 nM | 52.7 nM | ≥ 2000 nM | > 2000 nM
Cc1[nH]nc2c(=O)n(-c3cccnc3)c3nc(C(F)(F)F)ccc3c12 [Compound B216] | 200 to 1000 nM | 433 nM | < 500 nM | 245 nM | < 200 nM | 134 nM | < 100 nM | 25.3 nM | ≥ 2000 nM | 3590 nM
Cn1cc2c(n1)c(=O)n(-c1ccc3[nH]cnc3c1)c1cc(Cl)ccc21 [Compound B206] | 1000 to 3000 nM | 1290 nM | ≥ 2000 nM | > 2000 nM | 1000 to 3000 nM | 1180 nM | < 100 nM | 93 nM | – | –
Cc1ncccc1-n1c(=O)c2nn(C3CC3)cc2c2ccc(Cl)cc21 [Compound B226] | 200 to 1000 nM | 919 nM | < 500 nM | 27.7 nM | < 200 nM | 16.5 nM | < 100 nM | 30.9 nM | 500 to 2000 nM | 1030 nM
Cn1cc2c(n1)c(=O)n(-c1cnccn1)c1nc(C(F)(F)F)ccc21 [Compound B227] | > 3000 nM | 3030 nM | ≥ 2000 nM | 4710 nM | > 3000 nM | 4690 nM | < 100 nM | 51.8 nM | ≥ 2000 nM | ≥ 2000 nM
O=c1c2nn(C3CCOC3)cc2c2ccc(C(F)(F)F)nc2n1-c1cccnc1 (centres unmarked) [Compound B204] | 1000 to 3000 nM | 1190 nM | < 500 nM | 312 nM | 1000 to 3000 nM | 1850 nM | < 100 nM | 67.4 nM | – | –
Cn1cc2c(n1)c(=O)n(-c1ccccc1)c1nc(C(F)(F)F)ccc21 [Compound B177] | 200 to 1000 nM | 858 nM | 500 to 2000 nM | 866 nM | 200 to 1000 nM | 300 nM | < 100 nM | 24.3 nM | – | –
COc1cc(Cl)cc2c1c1cn(C)nc1c(=O)n2-c1cccnc1 [Compound B176] | 1000 to 3000 nM | 1320 nM | 500 to 2000 nM | 985 nM | 200 to 1000 nM | 263 nM | < 100 nM | 24.6 nM | – | –
COc1ncccc1-n1c(=O)c2nn(C)cc2c2ccc(C(F)(F)F)nc21 [Compound B203] | 200 to 1000 nM | 634 nM | < 500 nM | 40.4 nM | < 200 nM | 66.6 nM | < 100 nM | 51.4 nM | – | –
Cn1cc2c(n1)c(=O)n(-c1cccc(F)c1)c1nc(C(F)(F)F)ccc21 [Compound B193] | 1000 to 3000 nM | 2110 nM | 500 to 2000 nM | 696 nM | 200 to 1000 nM | 387 nM | < 100 nM | 25 nM | – | –
Cc1ncccc1-n1c(=O)c2[nH]ncc2c2ccc(Cl)cc21 [Compound B103] | < 200 nM | 53.9 nM | < 500 nM | 14.6 nM | < 200 nM | 27.8 nM | < 100 nM | 54.8 nM | – | –
Cc1ccc(-n2c(=O)c3nn(C)cc3c3ccc(C(F)(F)F)nc32)cn1 [Compound B223] | 200 to 1000 nM | 583 nM | 500 to 2000 nM | 1360 nM | 200 to 1000 nM | 692 nM | – | – | ≥ 2000 nM | > 2000 nM
Cn1cc2c(n1)c(=O)n(-c1cccnc1Cl)c1nc(C(F)(F)F)ccc21 [Compound B196] | 200 to 1000 nM | 691 nM | < 500 nM | 9.3 nM | < 200 nM | 25.3 nM | < 100 nM | 45.1 nM | – | –
Cn1cc2c(n1)c(=O)n(-c1cccnc1C1CC1)c1nc(C(F)(F)F)ccc21 (single isomer, unassigned) [Compound B213] | 200 to 1000 nM | 206 nM | < 500 nM | 21.8 nM | < 200 nM | 25 nM | – | – | 500 to 2000 nM | 1740 nM
Cn1cc2c(n1)c(=O)n(-c1ccnn1C)c1cc(Cl)ccc21 [Compound B58] | 1000 to 3000 nM | 1190 nM | < 500 nM | 206 nM | 200 to 1000 nM | 267 nM | < 100 nM | 55.2 nM | – | –
Cc1cncc(-n2c(=O)c3nn(C)cc3c3ccc(C(F)(F)F)nc32)c1 [Compound B217] | > 3000 nM | > 3000 nM | ≥ 2000 nM | 5430 nM | 1000 to 3000 nM | 1820 nM | – | – | ≥ 2000 nM | > 2000 nM
Cn1cc2c(n1)c(=O)n(-c1cccc(C#N)c1)c1nc(C(F)(F)F)ccc21 [Compound B192] | 1000 to 3000 nM | 2450 nM | < 500 nM | 378 nM | 200 to 1000 nM | 255 nM | < 100 nM | 26.9 nM | – | –
